# Legend:
# BC3 Hl cells = experiment: Insulin-stimulated labeling/hydrolysis of glycolipid (PI-glycan) precursor and water soluble products in BC3 Hl cells; assay type: cell-based, murine
# Method: FIG. 7--SAX HPLC of Radiolabeled Mediators from Insulin Treated Cells. BC3 Hl cells were cultured at 37° C. in Dulbecco's Minimal Essential Medium in the presence of 20% NU serum (Collaborative Research) on collagen coated 10 mm miniwells. Cells (1×10^6 /well) were preincubated with 10 uCi (A) [2,6^3 H]myoinositol or (B) [1,6^3 H]glucosamine (New England Nuclear) for 20 hours in the presence of 20% Nu Serum. Insulin was added to cells in monolayer in serum free media at a final concentration of 10 nM. Reactions were terminated by removal of media and addition of 1 ml chloroform/methanol/1N HCl (200:100:1), followed by addition of 0.5 ml 10 mM formic acid. Organic and aqueous phases were separated by centrifugation at 500 x g for 5 min.
# The water soluble labeled products were purified by a modification of a previously described protocol for purification of cAMP phosphodiesterase (PDE) modulators. The aqueous phases were chromatographed on DEAE-Cellulose, eluted with 0.25 TEA-formate, pH 3.75. This fraction was eluted through a C-18 reversed phase sepak in the same buffer. Following lyophilization, the solution was eluted through Dowex 50WX-4 in 50 mM TEA-formate. pH 3.0. After exposure to activated charcoal, samples were chromatographed on an SAX HLPC column (Whatman), eluted with a linear, 15 minute gradient of 60% methanol (A) to 0.5M TEA-formate, pH 3.75 (B) at 1 ml/minute. One ml fractions were counted. The two peaks of insulin stimulated radioactivity coeluted with similarly purified, myocyte derived PDE modulating activities.
# FIG. 9--Thin Layer Chromatography of the Radiolabeled Precursor from Insulin Treated Cells. (A) [^3 H]inositol and B) [^3 H]glucosaminelabeled cells were treated with or without 10 nM insulin. Following extraction and phase separation, the organic phase were dried under N2, resuspended in chloroform/methanol/H2 O (9:7:2); and spotted on oxalate impregnated Silica gel G plates. These were twice developed in chloroform/acetone/methanol/glacial acetic acid/H2 O (10:4:2:2:1). One cm regions were scraped and radioactivity determined by scintillation counting. Phosphoinositides were identified by iodine staining of standards.
# FIG. 11--Time Course of Precursor Hydrolysis by Insulin. Cells prelabeled with [^3 H]inositol were treated with 10 nM insulin for the designated intervals. Cells were extracted and phase separated as detailed in FIG. 7. Aqueous phases were chromatographed up to and including the SAX HPLC step (upper panel). Results reflect counts from a combination of Peaks I and II. The ratio of counts in these peaks were unchanged over the time course. The precursor residing in the organic phases was identified by the peak on TLC with an Rf =0.22, corresponding to the species depleted by PI-PLC (FIG. 10).
# Following preincubations with the appropriate isotopes, cells were resuspended in DMEM without serum and treated with 10 nM insulin at the designated intervals. Reactions were terminated by the addition of 1 ml chloroform/methanol/1N HCl (200:100:1), followed by 0.5 ml 10 mM formic acid. Following centrifugation at 500 x g for 5 min., the upper phase was discarded. For phospholipid analyses, the lower, organic phase was dried under N2, resuspended in chloroform/methanol/H2 O (9:7:2) and spotted on oxalate impregnated silica gel G plates. These were sequentially developed in chloroform/acetone/methanol/glacial acidic acid/H2 O (10:4:2:2:1) and chloroform/methanol/4N NH4 OH (45:35:10). One cm regions were scraped and eluted with chloroform/methanol (2:1) and counted. Phosphoinositide standards were identified by iodine staining.
# Pyruvate Dehydrogenase = experiment: Generation of an enzyme modulator from liver plasma membranes, pyruvate dehydrogenase readout; assay type: biochemical, rat
# Method: (§1) Purification of the Enzyme Modulator. Bovine liver particulate fraction was prepared as described previously [Saltiel A. R., (1984) "Preparation and Characterization of Putative Insulin Mediators from Liver", METHODS IN DIABETES […], eds. J. Larner, S. Pohl, I:73]. Solutions were incubated in 5 mM ammonium bicarbonate, pH 7.4 with 10 nM insulin or 1 ug/ml PI-PLC as described in the figure legends. Following incubation, solutions were acidified to pH 4.0 and centrifuged at 35,000 x g for 20 minutes. Resulting supernatants were extracted with chloroform/methanol (2:1). The upper aqueous phase was aspirated and methanol was evaporated. Enzyme modulating activities were purified as described in Publication No. 6 listed earlier herein. Briefly, the extract was chromatographed on DEAE-Cellulose and eluted with 0.25M triethylamine (TEA)-formate, pH 3.75. This was followed by chromatography on C-18 reversed phase resin, in the same buffer, followed by Dowex 50W X-4 in 50 mM TEA-formate, pH 3.0. The resulting eluate was lyophilized, resuspended in 50 mM TEA-formate, pH 4.5 and sequentially chromatographed on QAE-Sephadex, SAX HPLC and a P-2 gel filtration column. Only the cyclic inositol phosphate derivative residing in Peak I was examined.
# (§2) Enzyme Assays. The low Km cAMP PDE was assayed in a rat adipocyte particulate fraction as previously described [Saltiel, A. R., Steigerwalt,R. W., (1986) "Purification of Putative Insulin-Sensitive cAMP Phosphodiesterase or its Catalytic Domain From Rat Adipocytes", DIABETES, 35:698] and as later modified in Publication No. 6. Activity was linear throughout 20 min. and proportional to protein concentration. Only the low Km species of the enzyme was present in this fraction. PDH activity was assayed in liver mitoplasts after preincubation with ATP as previously described [Saltiel et al., (1982) PROC. NATL. ACAD. SCI. U.S.A., 79:3513.]. Adenylate cyclase activity was also assayed in purified adipocyte plasma membranes. For all enzyme assays, variability was less than 5%.
# (§3) Liver membranes were treated with or without 10 nM insulin or 1 ug/ml PI-PLC for 10 min. at 37° C. Following cetrifugation, the supernatants were extracted and purified up to and including the SAX HPLC step. Purified extracts were added to enzyme assays at a final dilution of 1:10. Enzyme activities were assayed with no additions or after addition of purified extracts from control, insulin or PIPPLC treated membrane. Percent of basal activity is expressed in parentheses. ^1 expressed as pmoles/mg protein-min. ^2 expressed as nmoles/mg protein-min.
# Adenylate Cyclase = experiment: Generation of an enzyme modulator from liver plasma membranes, adenylate cyclase readout; assay type: biochemical, rat
# Method: as §1, §2, §3
# [1] = membranes exposed to 10 nM insulin 10 min.
substance,measurement,setting,value
Insulin: monocomponent bovine insulin,"production of [3H]inositol containing products (Peaks I and II combined), share of the maximal effect","BC3 Hl cells; 10 nM insulin, after 30 sec",Seventy
same,increase of [3H]inositol radioactivity in the precursor over control levels,"BC3 Hl cells; 10 nM insulin, after the initial decrease",60%
same,decrease in [3H]inositol counts in the precursor,"BC3 Hl cells; 10 nM insulin, at 30 sec",20%
same,decrease in [3H]inositol labeling of the PI-glycan,"BC3 Hl cells; Example IV, after 30 seconds of insulin exposure",20%
same,decrease in [3H]myristate labeling of the PI-glycan,"BC3 Hl cells; Example IV, by 1 min. of insulin",60%
same,gradual increase in [3H]inositol counts of the PI-glycan,"BC3 Hl cells; Example IV, following the initial decrease",40%
same,time until [3H]myristate labeling of the PI-glycan returned to basal levels,"BC3 Hl cells; Example IV, insulin",20 to 30 min
same,increase of [3H]glucosamine incorporation in the precursor glycolipid peak,"BC3 Hl cells; insulin 10 nM for 10 min., TLC",approximately 40%
same,increase of [3H]inositol incorporation in the precursor glycolipid peak,"BC3 Hl cells; insulin 10 nM for 10 min., TLC",approximately 40%
same,Pyruvate Dehydrogenase activity,"Pyruvate Dehydrogenase; extract as E41, no addition 1.77±0.07, control membranes 2.45±0.20",4.80±0.38 nmoles/mg protein-min.
same,stimulation of PDH by the substance generated,Pyruvate Dehydrogenase; [1],2-3 fold
same,Adenylate Cyclase activity,"Adenylate Cyclase; extract as E41, no addition 272±14, control membranes 210±4",72.0±3.7 pmoles/mg protein-min.
same,inhibition of adenylate cyclase by the substance generated,Adenylate Cyclase; [1],75%
